These results are taken from patent US12351574B2, “Selective ligands for modulation of GIRK channels” (Northeastern University, priority 2018, dated 2025).

“And” between values parts separate entries of the source, which are not always exact repeats. Identical values can stand only once. “Also recorded” adds a separate entry of the source. Like-named read-outs stand apart in the source and are kept apart here.

What is called EC50 is the concentration needed to bring the measured effect to its halfway point. A high value points to weaker potency.

The target in one assay is T1, GIRK1/2 (UniProt P48542+P48549).
T1 sequence (P48549 1-501): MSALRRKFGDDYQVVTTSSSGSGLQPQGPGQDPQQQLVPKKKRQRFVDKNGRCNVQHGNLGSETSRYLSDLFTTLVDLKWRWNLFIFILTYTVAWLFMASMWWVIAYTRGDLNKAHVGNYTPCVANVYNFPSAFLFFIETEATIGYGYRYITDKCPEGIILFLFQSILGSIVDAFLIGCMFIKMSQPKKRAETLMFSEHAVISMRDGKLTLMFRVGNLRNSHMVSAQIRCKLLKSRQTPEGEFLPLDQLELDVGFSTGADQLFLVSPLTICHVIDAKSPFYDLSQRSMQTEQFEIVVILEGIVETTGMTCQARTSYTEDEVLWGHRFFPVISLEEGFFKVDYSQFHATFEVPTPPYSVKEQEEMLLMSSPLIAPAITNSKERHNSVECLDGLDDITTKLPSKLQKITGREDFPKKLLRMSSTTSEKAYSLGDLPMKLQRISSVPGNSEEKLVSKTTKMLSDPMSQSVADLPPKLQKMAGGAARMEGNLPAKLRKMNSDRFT
T1 sequence (P48542 1-425): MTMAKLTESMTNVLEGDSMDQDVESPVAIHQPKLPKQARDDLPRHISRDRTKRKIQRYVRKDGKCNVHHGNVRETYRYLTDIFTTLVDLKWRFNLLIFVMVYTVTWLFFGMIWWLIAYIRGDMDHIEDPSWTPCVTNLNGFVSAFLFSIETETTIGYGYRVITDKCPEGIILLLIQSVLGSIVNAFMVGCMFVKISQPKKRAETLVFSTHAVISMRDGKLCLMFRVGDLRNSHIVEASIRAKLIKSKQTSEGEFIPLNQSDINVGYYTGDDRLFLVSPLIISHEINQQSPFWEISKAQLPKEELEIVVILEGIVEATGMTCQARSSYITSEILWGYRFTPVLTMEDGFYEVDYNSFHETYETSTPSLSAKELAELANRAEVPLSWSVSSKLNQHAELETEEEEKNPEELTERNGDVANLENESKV
The assay can be described thus: two-electrode voltage clamp (TEVC) in Xenopus oocytes expressing GIRK1/2 wild-type. The class given is cell-based, human GIRK1, mouse GIRK2. Further details: expressed in transfected cells; host or cells: Xenopus laevis oocytes (cRNA injection). Conditions: for selectivity for GIRK1/2 over GIRK1/4 (in words) / EC50: TEVC; for selectivity for GIRK1/2 over GIRK1/4 (in words): GIRK1/2 versus GIRK1/4; for EC50: Xenopus oocytes, GIRK1/2 wild-type; for EMAX at GIRK1/2: current normalized to basal current. From the text: Molecular biology: For Xenopus oocyte expression, human GIRK1 and human GIRK4 cDNAs were subcloned into pGEMHE. For mammalian expression, human GIRK1 and human GIRK4 cDNAs were subcloned into pcDNA3 and pcDNA3.1/V5-His B, respectively (Invitrogen). Mouse GIRK2 cDNA was subcloned in the dual-function vector, pXoom. Point mutations were introduced using a standard Pfu-based mutagenesis technique according to the QuikChange protocol (Agilent). Mutations were verified by sequencing.
(§1) Xenopus laevis oocyte expression: Plasmid DNAs of GIRK channel subunits were linearized prior to in vitro transcription. Capped RNAs were transcribed using mMESSAGE mMACHINE T7 Transcription Kit (Thermo Fisher Scientific). Xenopus oocytes were surgically extracted, dissociated and defolliculated by collagenase treatment, and microinjected with 50 nl of a water solution containing 1 ng of each GIRK subunit RNA. For TEVC experiments, oocytes were kept 2 days at 17° C. before recording, while for NPo experiments oocytes were incubated for up to 4 days at 17° C.
Xenopus laevis oocyte expression: All cDNA constructs in the pGEMHE vector were linearized using the NheI restriction enzyme, whereas those in the pXoom vector were linearized using the XhoI restriction enzyme. Linearized cDNAs were in vitro-transcribed using the mMessage mMachine® kit (Ambion) kit. Complementary RNA (cRNA) concentrations were quantified by optical density. Xenopus oocytes were surgically extracted, dissociated, and defolliculated by collagenase treatment and microinjected with 50 nl of the desired cRNAs diluted in RNAase-free water. The use of Xenopus laevis frogs for this study was approved by the Institutional Animal Care and Use Committee (IACUC) at Northeastern University. All constructs used in this study were injected to achieve between 1-2 ng per oocyte depending on the channel. Oocytes were incubated for 2 days at 18° C.
Electrophysiology of oocytes: Whole-oocyte currents were measured by conventional two-electrode voltage clamp (TEVC) with a GeneClamp 500 amplifier (Axon Instruments). […] Barium-sensitive currents were normalized to average basal current in the vehicle solutions. The HK solution contained the following: 96 mM KCl, 1 mM NaCl, 1 mM MgCl2, 5 mM KOH/HEPES, pH 7.4. The barium solution consisted of HK+10 mM BaCl2. Five to ten oocytes from the same batch (same frog) were recorded for each group, and the experiments were repeated in at least four batches. Data acquisition and analysis were carried out using pClamp9 (Molecular Devices) and OriginPro (Microcal) software.

The target of another assay is T2, GIRK1/4 (Homo sapiens, UniProt P48544+P48549).
T2 sequence (P48549 1-501): T1 sequence (P48549 1-501)
T2 sequence (P48544 1-419): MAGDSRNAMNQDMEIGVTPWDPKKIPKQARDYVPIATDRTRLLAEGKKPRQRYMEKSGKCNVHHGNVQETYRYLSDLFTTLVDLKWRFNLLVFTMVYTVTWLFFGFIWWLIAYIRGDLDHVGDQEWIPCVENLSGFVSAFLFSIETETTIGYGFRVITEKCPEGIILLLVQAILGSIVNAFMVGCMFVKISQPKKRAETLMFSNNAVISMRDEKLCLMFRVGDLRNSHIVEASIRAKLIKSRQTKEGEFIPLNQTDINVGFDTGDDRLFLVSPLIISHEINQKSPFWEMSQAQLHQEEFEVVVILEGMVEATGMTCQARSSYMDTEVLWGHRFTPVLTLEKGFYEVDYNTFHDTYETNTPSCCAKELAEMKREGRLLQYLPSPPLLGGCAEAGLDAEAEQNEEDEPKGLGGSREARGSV
The assay can be described thus: diC8-PIP2 concentration-response (NPo), inside-out macropatches from Xenopus oocytes, GIRK1/4. The class given is cell-based. Further details: expressed in transfected cells; host or cells: Xenopus laevis oocytes (cRNA injection). Conditions: in the presence of 10 μM compound; for apparent affinity of GIRK1/4 channels for diC8-PIP2: control 48.4±8 μM.
Description: The inventors next turned to inside-out macropatches from Xenopus oocytes to compare changes in the PIP2 sensitivity by examining diC8 concentration-responses in the absence and presence of saturating concentrations of each of the activating compounds. […] In FIG. 14B, the control plot overlays the GAT1508 and GAT1521 plots; only ML297 was able to left-shift the sensitivity of GIRK1/4 heteromers to PIP2, while both GAT1508 and GAT1521 were ineffective in changing the sensitivity of these heteromers to PIP2.
as §1
Oocyte macropatch studies: Macropatch GIRK channel activity was recorded from devitellinized oocytes under the inside-out mode of standard patch clamp methods using an AM2400 patch clamp amplifier (A-M systems). […] Oocytes were bathed with a solution comprising (in mM): 96 KCl, 5 EGTA, 1 MgATP and 10 HEPES (pH 7.4). Current amplitudes were measured at −80 mV with a sampling rate of 10 kHz. Data were analyzed using WinEDR and Clampfit software (Molecular Devices).

Where [1] appears, read: ML297 considered 100%, read-out: EMAX at GIRK1/2, % relative to ML297.

On to `Cc1cc(NC(=O)Nc2ccc(Br)s2)n(-c2ccccc2)n1` [GAT1508, 1-(5-bromothiophen-2-yl)-3-(3-methyl-1-phenyl-1H-pyrazol-5-yl)urea], for which the “GAT1508-induced potassium current, GIRK1/2 (in words)” value on GIRK1/2 (10 μM, 10 mM K+, holding potential −100 mV) is on record as “significantly increased currents”. Further, on GIRK1/2 (10 μM, 10 mM thallium, holding potential −100 mV), the “GAT1508-induced thallium current, GIRK1/2 (in words)” value is reported as “induced current increases”. The Emax on GIRK1/2 (GAT1508 at wild-type GIRK1/2 considered 100%, read-out: EMAX, % of the control GIRK1/2) is 100%. On GIRK1/2 (setting [1]), the Emax came to 76%. At GIRK1/2, the “selectivity for GIRK1/2 over GIRK1/4 (in words)” value (shortened to “selectivity”) was “most selective GIRK1/2 activators relative to GIRK1/4; also recorded: could induce the current increase only in the brain channel”; the EC50 worked out at 370 ± 110 nM; the “EMAX at GIRK1/2” value is 2.42±0.07 and 2.36±0.23. Further, the “apparent affinity of GIRK1/4 channels for diC8-PIP2” value (“apparent affinity” for short) on GIRK1/4 came to 46 ± 7.4 µM.
Regarding `Cc1cc(NC(=O)Nc2ccc(C)s2)n(-c2ccccc2)n1` [GAT1521, 1-(3-methyl-1-phenyl-1H-pyrazol-5-yl)-3-(5-methylthiophen-2-yl)urea], at GIRK1/2 (setting [1]), the Emax was found to be 73%. At GIRK1/2, the “selectivity” value is given as “most selective GIRK1/2 activators relative to GIRK1/4; also recorded: retained the specificity for brain over cardiac currents; also recorded: could induce the current increase only in the brain channel”, the EC50 was 1220 ± 80 nM and the “EMAX at GIRK1/2” value was 2.36±0.06. For the same compound, the “potency/efficacy compared to GAT1508 (in words)” value at GIRK1/2 (concentration-response, FIGS. 34A-34I) is listed as “lower potency than GAT1508”. Further, on GIRK1/4, the “apparent affinity” value was determined as 51 ± 6.5 µM.
As for `Cc1cc(NC(=O)Nc2ccc(F)c(F)c2)n(-c2ccccc2)n1` [ML297, reference compound], the “compound-induced current normalized to the basal current, GIRK1+GIRK2” value on GIRK1/2 (10 μM, High Potassium (HK) solution, FIG. 31) is about 2.5. At GIRK1/2 (ML297 considered 100%), the “EMAX at GIRK1/2, % relative to ML297” value is 100%. On GIRK1/2, the “selectivity” value is “stimulated both brain and cardiac heteromeric channels”; it took 340 ± 120 nM to reach a half-maximal effect (EC50); the “EMAX at GIRK1/2” value worked out at 2.87±0.11. Moreover, the “EMAX of diC8-PIP2 response (NPo), GIRK1/4” value on GIRK1/4 (control 4.4±0.2) is given as 5.4±0.2. For the same compound, the “apparent affinity” value at GIRK1/4 worked out at 17.4 ± 2 µM.
